Measurements reported in patent US11274100B2, “EP300/CREBBP inhibitor” (Daiichi Sankyo Company, Limited, priority 2017, dated 2022).

Assays:
[1] = system: TE-8 cells; experiment: Cell growth inhibitory activity, TE-8 cells (Test Example 3); type: cell-based; settings: Homo sapiens, 72 h, cultured for 3 days, CellTiter-Glo
Description: (§1) [Test Example 3] Evaluation of Cell Growth Inhibitory Activity
(§2) As a culture medium for each cell, a 10% FBS supplemented RPMI 1640 medium (for LK2 cells and TE-8 cells derived from human esophageal cancer) was used. LK2 cells were purchased from Human Science Research Resources Bank, and TE-8 cells were purchased from Riken Cell Bank. The compound of each of Examples 1 to 108b was prepared by dilution with Freedom EVO 150 (Tecan Trading AG) (4-fold diluted, 10 stages, 10 mM to 38 nM). The resultant was added to respective wells of a 384-well plate in an amount of 40 nL/well using Echo 555 (Labcyte Inc.). The LK2 or TE-8 cells were seeded in the plate at 400 cells/40 μL/well (day 0), and were cultured for 3 days. On the day of addition of the compound (day 0) and 3 days after the addition of the compound (day 3), an ATP measurement reagent of CellTiter-Glo (registered trademark) 2.0 Assay (Promega Corporation, #G9242) was added to each well in an amount of 10 μL/well, and the amount of luminescence of each well was measured using EnVision. Based on the amount of luminescence (C0) on the day of the addition of the compound, and the amounts of luminescence of a compound non-addition group (C3) and a compound addition group (T3) obtained after the 3-day culture of the compound, a cell survival rate was calculated in accordance with the following expression: Cell survival rate (%)=(T3−C0)/(C3−C0)×100
(§3) A concentration (GI50 value) of each compound at which the growth of the TE-8 or LK-2 cells was inhibited by 50% was calculated by semilogarithmically plotting the cell survival rate at each concentration and the compound concentration.

[2] = system: LK2 cells; experiment: Cell growth inhibitory activity, LK2 cells (Test Example 3); type: cell-based; settings: Homo sapiens, LK-2, 72 h, cultured for 3 days, CellTiter-Glo
Description: as §1, §2, §3

[3] = target: CREBBP (Homo sapiens, UniProt Q92793); experiment: Histone acetyltransferase inhibitory activity against CREBBP (Test Example 1); type: biochemical; settings: 125 ng/mL CREBBP, 2 μM Acetyl-CoA, 100 nM Histone H4(1-25)-GSGSK (Biotin), 28° C. for 1 hour
Chain of CREBBP (Q92793 whole entry): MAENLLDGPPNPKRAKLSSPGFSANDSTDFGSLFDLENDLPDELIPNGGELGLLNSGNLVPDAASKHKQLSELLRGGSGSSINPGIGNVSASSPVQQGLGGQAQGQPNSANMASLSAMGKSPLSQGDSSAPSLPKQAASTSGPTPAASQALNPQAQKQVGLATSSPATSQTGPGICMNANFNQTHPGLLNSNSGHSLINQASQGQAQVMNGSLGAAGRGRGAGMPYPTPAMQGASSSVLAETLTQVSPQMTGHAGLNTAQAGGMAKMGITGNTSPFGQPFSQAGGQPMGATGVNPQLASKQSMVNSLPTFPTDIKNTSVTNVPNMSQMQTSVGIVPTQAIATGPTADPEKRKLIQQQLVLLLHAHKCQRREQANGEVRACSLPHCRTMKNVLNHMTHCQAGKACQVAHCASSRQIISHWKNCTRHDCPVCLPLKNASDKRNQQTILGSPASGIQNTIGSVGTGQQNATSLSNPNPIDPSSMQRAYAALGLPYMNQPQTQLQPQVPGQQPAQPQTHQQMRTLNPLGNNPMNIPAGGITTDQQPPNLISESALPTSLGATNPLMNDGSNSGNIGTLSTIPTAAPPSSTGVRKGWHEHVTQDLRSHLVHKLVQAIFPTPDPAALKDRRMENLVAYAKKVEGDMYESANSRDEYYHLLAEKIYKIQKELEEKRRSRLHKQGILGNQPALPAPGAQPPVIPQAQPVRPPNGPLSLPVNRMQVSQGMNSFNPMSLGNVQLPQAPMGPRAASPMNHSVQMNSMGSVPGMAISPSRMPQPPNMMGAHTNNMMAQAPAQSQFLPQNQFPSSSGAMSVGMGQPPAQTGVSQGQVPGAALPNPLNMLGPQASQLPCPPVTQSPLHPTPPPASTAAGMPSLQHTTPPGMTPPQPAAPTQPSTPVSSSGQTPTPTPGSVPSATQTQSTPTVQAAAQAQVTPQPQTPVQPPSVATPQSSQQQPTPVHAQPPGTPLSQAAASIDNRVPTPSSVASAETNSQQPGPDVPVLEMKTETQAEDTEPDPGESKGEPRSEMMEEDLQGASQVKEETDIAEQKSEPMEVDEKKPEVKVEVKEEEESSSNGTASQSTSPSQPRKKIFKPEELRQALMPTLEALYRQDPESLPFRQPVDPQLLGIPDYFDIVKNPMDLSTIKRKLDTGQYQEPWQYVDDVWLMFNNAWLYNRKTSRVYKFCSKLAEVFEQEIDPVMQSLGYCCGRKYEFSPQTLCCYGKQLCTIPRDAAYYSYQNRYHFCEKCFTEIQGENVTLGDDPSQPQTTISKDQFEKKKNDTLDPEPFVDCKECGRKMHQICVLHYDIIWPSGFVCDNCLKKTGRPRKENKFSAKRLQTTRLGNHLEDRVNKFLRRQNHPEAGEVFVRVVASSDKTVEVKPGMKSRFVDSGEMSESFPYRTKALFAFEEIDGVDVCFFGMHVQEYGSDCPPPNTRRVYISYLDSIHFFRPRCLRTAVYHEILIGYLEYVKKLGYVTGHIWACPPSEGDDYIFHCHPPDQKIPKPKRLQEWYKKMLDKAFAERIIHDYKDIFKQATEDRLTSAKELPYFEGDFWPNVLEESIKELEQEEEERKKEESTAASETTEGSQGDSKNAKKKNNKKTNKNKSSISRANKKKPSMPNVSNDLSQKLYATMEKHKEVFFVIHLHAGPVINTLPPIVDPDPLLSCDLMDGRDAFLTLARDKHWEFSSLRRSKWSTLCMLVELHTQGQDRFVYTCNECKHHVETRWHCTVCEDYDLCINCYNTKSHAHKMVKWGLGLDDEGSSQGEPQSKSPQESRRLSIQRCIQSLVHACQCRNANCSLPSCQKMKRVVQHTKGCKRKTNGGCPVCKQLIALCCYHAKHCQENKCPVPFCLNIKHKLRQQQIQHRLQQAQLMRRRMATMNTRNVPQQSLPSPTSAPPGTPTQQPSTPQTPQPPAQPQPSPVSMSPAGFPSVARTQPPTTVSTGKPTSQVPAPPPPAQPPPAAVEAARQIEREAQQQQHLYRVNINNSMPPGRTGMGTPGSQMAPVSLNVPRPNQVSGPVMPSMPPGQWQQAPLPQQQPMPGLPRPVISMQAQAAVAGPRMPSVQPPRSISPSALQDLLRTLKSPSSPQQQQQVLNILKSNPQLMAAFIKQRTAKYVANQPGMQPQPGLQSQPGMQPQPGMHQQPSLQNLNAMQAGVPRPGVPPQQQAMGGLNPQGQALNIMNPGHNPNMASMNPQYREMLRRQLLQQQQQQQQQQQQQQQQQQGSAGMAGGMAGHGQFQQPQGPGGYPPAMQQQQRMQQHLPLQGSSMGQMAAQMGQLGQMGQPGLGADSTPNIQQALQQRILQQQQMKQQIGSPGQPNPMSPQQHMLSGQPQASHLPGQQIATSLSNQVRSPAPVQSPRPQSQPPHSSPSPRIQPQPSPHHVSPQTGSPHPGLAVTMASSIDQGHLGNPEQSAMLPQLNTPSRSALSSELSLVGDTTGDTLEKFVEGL
Description: (§4) [Test Example 1] Evaluation of Histone
(§5) Acetyltransferase Inhibitory Activity against EP300 and CREBBP
(§6) 10 μL each of reaction solutions each containing a different concentration of the compound of each of Examples 1 to 108b (50 mM Tris-HCl (pH8.0), 0.1 mM EDTA, 1 mM dithiothreitol, 0.01% Tween-20, 0.01% Bovine serum albumin, 330 nM trichostatin A, 2 μM Acetyl-CoA (Sigma-Aldrich, #A2056), 100 nM Histone H4(1-25)-GSGSK (Biotin) (Anaspec, #65242-1), 1% dimethyl sulfoxide, 10 to 0.0006 μM of each compound, 50 ng/mL EP300 or 125 ng/mL CREBBP) was added to respective wells of a 384-well plate, and cultured at 28° C. for 1 hour. Thereafter, 5 μL of 30 μM Lys-CoA (Daiichi Sankyo Co., Ltd.) dissolved in LANCE detection buffer (Perkin Elmer Co., Ltd., #CR97-100) was added to each well. Furthermore, 5 μL of LANCE detection buffer containing 2 nM Eu-anti pan-Ac (Perkin Elmer Co., Ltd., #TRF0412) and 50 nM Sta-Ulight (Perkin Elmer Co., Ltd., #TRF0102) was added to each well, and the resultant was cultured at room temperature overnight. EnVision (Perkin Elmer Co., Ltd., Model 2104-0020) was used to measure ULight signals. […] EP300 and CREBBP were produced and purified by Daiichi Sankyo RD Novare Co., Ltd.

[4] = target: EP300 (Homo sapiens, UniProt Q09472); experiment: Histone acetyltransferase inhibitory activity against EP300 (Test Example 1); type: biochemical; settings: 50 ng/mL EP300, 2 μM Acetyl-CoA, 100 nM Histone H4(1-25)-GSGSK (Biotin), 28° C. for 1 hour
Chain of EP300 (Q09472 whole entry): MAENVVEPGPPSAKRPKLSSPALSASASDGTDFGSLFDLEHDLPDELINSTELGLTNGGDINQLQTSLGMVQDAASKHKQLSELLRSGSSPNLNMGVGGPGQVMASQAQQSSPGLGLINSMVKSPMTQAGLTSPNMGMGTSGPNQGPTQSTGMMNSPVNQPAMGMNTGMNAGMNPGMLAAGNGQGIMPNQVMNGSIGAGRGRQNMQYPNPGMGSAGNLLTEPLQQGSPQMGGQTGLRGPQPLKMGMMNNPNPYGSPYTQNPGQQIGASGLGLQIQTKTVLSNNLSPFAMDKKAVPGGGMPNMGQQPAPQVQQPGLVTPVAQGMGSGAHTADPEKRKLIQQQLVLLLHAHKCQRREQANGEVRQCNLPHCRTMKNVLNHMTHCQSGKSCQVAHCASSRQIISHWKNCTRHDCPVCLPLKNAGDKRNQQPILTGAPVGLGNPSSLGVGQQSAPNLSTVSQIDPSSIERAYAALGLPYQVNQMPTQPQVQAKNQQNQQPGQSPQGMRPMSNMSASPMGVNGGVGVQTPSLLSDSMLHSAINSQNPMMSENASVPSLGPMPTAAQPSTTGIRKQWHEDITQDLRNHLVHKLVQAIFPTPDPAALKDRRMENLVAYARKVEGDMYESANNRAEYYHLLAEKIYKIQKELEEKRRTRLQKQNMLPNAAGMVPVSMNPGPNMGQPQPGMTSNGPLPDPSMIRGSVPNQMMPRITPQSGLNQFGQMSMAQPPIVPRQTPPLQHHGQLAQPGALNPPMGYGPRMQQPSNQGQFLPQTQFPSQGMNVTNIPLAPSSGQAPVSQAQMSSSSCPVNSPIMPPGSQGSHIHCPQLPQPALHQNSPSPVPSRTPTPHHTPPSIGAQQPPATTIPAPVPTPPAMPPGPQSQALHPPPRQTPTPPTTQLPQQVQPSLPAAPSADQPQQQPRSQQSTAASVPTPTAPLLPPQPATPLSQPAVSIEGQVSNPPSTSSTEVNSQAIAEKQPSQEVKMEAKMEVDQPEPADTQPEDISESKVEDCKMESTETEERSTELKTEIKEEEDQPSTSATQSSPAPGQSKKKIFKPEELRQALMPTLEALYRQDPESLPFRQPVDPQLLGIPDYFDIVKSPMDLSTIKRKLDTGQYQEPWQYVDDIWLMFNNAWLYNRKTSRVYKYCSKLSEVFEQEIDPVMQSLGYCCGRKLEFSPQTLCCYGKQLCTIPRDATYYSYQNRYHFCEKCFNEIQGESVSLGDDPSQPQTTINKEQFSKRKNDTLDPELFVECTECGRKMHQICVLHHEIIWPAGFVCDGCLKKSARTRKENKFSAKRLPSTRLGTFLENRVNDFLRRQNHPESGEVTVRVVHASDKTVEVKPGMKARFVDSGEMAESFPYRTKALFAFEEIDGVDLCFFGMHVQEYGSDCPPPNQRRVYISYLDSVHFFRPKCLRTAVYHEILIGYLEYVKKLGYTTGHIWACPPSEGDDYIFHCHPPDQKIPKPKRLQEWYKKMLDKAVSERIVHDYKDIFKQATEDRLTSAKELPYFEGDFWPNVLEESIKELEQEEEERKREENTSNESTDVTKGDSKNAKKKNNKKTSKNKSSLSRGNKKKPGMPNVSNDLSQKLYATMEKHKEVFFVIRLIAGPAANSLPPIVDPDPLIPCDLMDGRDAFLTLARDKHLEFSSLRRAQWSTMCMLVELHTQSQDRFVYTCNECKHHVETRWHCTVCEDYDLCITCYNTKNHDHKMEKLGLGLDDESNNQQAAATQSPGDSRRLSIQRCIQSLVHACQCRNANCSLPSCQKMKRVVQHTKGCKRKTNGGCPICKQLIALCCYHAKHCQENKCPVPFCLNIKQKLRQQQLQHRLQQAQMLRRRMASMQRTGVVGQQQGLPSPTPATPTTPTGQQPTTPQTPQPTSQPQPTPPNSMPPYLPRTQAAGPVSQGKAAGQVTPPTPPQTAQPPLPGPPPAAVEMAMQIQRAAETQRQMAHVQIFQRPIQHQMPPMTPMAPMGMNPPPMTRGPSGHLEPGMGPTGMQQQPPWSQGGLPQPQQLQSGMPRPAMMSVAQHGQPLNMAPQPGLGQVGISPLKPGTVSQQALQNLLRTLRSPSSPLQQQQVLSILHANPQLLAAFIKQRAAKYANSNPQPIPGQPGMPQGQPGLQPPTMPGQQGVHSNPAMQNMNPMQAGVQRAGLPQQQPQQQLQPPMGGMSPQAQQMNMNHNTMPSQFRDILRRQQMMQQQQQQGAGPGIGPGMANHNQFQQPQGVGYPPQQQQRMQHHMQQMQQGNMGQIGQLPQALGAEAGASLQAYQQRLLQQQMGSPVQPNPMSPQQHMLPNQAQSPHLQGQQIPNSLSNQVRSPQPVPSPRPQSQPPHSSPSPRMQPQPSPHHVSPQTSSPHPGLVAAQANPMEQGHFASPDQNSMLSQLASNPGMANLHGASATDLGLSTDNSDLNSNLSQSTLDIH
Description: as §4, §5, §6

[5] = system: H3K27Ac; experiment: Intracellular H3K27Ac inhibitory activity in LK2 cells (Test Example 2); type: cell-based; settings: Homo sapiens, LK-2, cultured with compound for 3 hours, read-out: Test Example 2 H3K27Ac Inhibition (LK2) IC50
Description: [Test Example 2] Evaluation of Intracellular H3K27Ac Inhibitory Activity
LK2 cells derived from human squamous cell lung cancer were seeded in a 96 well plate at 40000 cells/100 μL/well, and were cultured overnight at 37° C. in 5% CO2. The LK2 cells were purchased from Human Science Research Resources Bank. […] The supernatant was discarded, 4% paraformaldehyde was added thereto at 100 μL/well, and the resultant was allowed to stand still at room temperature for 15 minutes. The 4% paraformaldehyde was discarded, and the resultant was washed with PBS-T. A quenching buffer (PBS-T containing 1% H2O2) was added thereto at of 100 μL/well, and the resultant was allowed to stand still at room temperature for 10 minutes. The resultant was washed with PBS-T, a blocking buffer (StartingBlocK T20 (TBS) Blocking Buffer (Thermo […], #37543)) was added thereto at 200 μL/well, and the resultant was allowed to stand still at room temperature for 1 hour. The supernatant was discarded, Acetyl-Histone H3 (Lys27) (D5E4) XP (registered trademark) Rabbit mAb (cell Signaling, #8173) diluted with a blocking buffer was added thereto at 50 μL/well, and the resultant was allowed to stand still at 4° C. overnight. The resultant was washed with PBS-T, Anti-Rabbit IgG-HRP (Cell Signaling, #7074S) diluted with a blocking buffer was added thereto at 50 μL/well, and the resultant was cultured at room temperature for 1 hour. The resultant was washed with PBS-T, SuperSignal (registered trademark) ELISA Pico Chemiluminescent Substrate (Thermo […], #37069) was added thereto at 50 μL/well, and a signal was measured using EnVision.

Compound | IC50 [3] [nM] | IC50 [4] [nM] | IC50 [5] [nM] | GI50 [1] [nM] | GI50 [2] [nM]
O=C(Nc1ccc2[nH]c(CO)cc2n1)[C@H]1C[C@@H](F)CN1C(=O)C1(c2ccc(OC(F)F)cc2)CCC(F)(F)CC1 [Example 106, (4R)-1-({1-[4-(Difluoromethoxy)phenyl]-4,4-difluorocyclohexyl}carbonyl)-4-fluoro-N-[2-(hydroxymethyl)-1H-pyrrolo[3,2-b]pyridin-5-yl]-D-prolinamide] | 43 | 24 | 39 | 337 | 250
COc1ccc(C2(C(=O)N3CCOCC(Cc4cccc5[nH]ncc45)C3)CCCC2)cc1 (single isomer, unassigned) [Example 108b, [6-(1H-Indazol-4-ylmethyl)-1,4-oxazepan-4-yl][1-(4-methoxyphenyl)cyclopentyl]methanone] | 83 | 50 | 125 | 1160 | 1090
COc1ccc(C2(C(=O)N(CCO)CC(=O)Nc3ccc4[nH]ncc4n3)CCC(F)(F)CC2)cc1 [Example 72, 4,4-Difluoro-N-(2-hydroxyethyl)-1-(4-methoxyphenyl)-N-[2-oxo-2-(1H-pyrazolo[4,3-b]pyridin-5-ylamino)ethyl]cyclohexanecarboxamide] | 182 | 177 | 1150 | > 10000 | > 10000
COc1ccc(C2(C(=O)N(C)[C@@H](C(=O)Nc3ccc4[nH]ncc4n3)[C@@H](C)O)CCC(F)(F)CC2)cc1 [Example 78, 4,4-Difluoro-N-[(2R,3R)-3-hydroxy-1-oxo-1-(1H-pyrazolo[4,3-b]pyridin-5-ylamino)butan-2-yl]-1-(4-methoxyphenyl)-N-methylcyclohexanecarboxamide] | 323 | 259 | 769 | 4630 | 2150
COc1ccc(C2(C(=O)N(C)[C@H](CO)C(=O)Nc3ccc4[nH]ncc4n3)CCC(F)(F)CC2)cc1 [Example 107, 4,4-Difluoro-N-[(2R)-3-hydroxy-1-oxo-1-(1H-pyrazolo[4,3-b]pyridin-5-ylamino)propan-2-yl]-1-(4-methoxyphenyl)-N-methylcyclohexanecarboxamide] | 155 | 49 | 14 | 195 | 99.9
COc1ccc(C2(C(=O)N(C)[C@@H](C(=O)Nc3ccc4[nH]ncc4n3)[C@H](C)O)CCC(F)(F)CC2)cc1 [Example 80, 4,4-Difluoro-N-[(2R,3S)-3-hydroxy-1-oxo-1-(1H-pyrazolo[4,3-b]pyridin-5-ylamino)butan-2-yl]-1-(4-methoxyphenyl)-N-methylcyclohexanecarboxamide] | 91 | 78 | 17 | 277 | 141
O=C(Nc1ccc2[nH]ncc2n1)[C@H]1[C@H](O)[C@@H](F)CN1C(=O)C1(c2ccc(OC(F)F)cc2)CCC(F)(F)CC1 [Example 95] | 51 | 36 | 20 | 246 | 179

Continued, in another order:

IC50 [3] [nM] | IC50 [4] [nM] | IC50 [5] [nM] | Compound | GI50 [1] [nM] | GI50 [2] [nM]
7 | 4 | 9 | O=C(Nc1ccc2[nH]ncc2n1)[C@H]1C[C@@H](F)CN1C(=O)C1(c2ccc(OC(F)F)cc2)CC(F)(F)C1 [Example 90] | 106 | 73.4
77 | 41 | 34 | CNCc1cc2nc(NC(=O)[C@H]3C[C@@H](F)CN3C(=O)C3(c4ccc(OC(F)F)cc4)CCC(F)(F)CC3)ccc2[nH]1 [Example 103, (4R)-1-({1-[4-(Difluoromethoxy)phenyl]-4,4-difluorocyclohexyl}carbonyl)-4-fluoro-N-{2-[(methylamino)methyl]-1H-pyrrolo[3,2-b]pyridin-5-yl}-D-prolinamide] | 304 | 184
53 | 31 | 29 | O=C(Nc1ccc2[nH]ncc2n1)[C@H]1C[C@@H](F)CN1C(=O)C1(c2ccc(OCF)c(F)c2)CCC(F)(F)CC1 [Example 85, (4R)-1-({4,4-Difluoro-1-[3-fluoro-4-(fluoromethoxy)phenyl]cyclohexyl}carbonyl)-4-fluoro-N-1H-pyrazolo[4,3-b]pyridin-5-yl-D-prolinamide] | 412 | 206
94 | 99 | 139 | COc1ccc(C2(C(=O)N3C[C@@H](O)C[C@@H]3C(=O)Nc3ccc4[nH]ncc4n3)CCCCC2)cc1 [Example 71, (4S)-4-Hydroxy-1-{[1-(4-methoxyphenyl)cyclohexyl]carbonyl}-N-1H-pyrazolo[4,3-b]pyridin-5-yl-D-prolinamide] | 1540 | 797
52 | 60 | 94 | COc1ccc(C2(C(=O)N3C[C@H](F)C[C@@H]3C(=O)Nc3cc4ccccn4n3)CCCCC2)cc1 [Example 70, (4R)-4-Fluoro-1-{[1-(4-methoxyphenyl)cyclohexyl]carbonyl}-N-pyrazolo[1,5-a]pyridin-2-yl-D-prolinamide] | 1070 | 729
121 | 56 | 188 | COc1ncc(C2(C(=O)N3C[C@H](F)C[C@@H]3C(=O)Nc3ccc4[nH]ncc4n3)CCCC2)cn1 [Example 64] | 1270 | 643
48 | 48 | 246 | COc1ccc(C2(C(=O)N3C[C@H](F)C[C@@H]3C(=O)Nc3cccc4[nH]ncc34)CCCCO2)cc1 (single isomer, unassigned) [Example 44] | 1740 | 589
27 | 20 | 27 | COc1ccc(C2(C(=O)N3C[C@H](F)C[C@@H]3C(=O)Nc3ccc4[nH]ccc4n3)CCCCC2)cc1 [Example 50] | 288 | 166
43 | 34 | 15 | COc1ccc(C2(C(=O)N3C[C@H](F)C[C@@H]3C(=O)Nc3ccc4[nH]ncc4n3)CCCCC2)cn1 [Example 63] | 117 | 86
75 | 60 | 173 | CC(C)(C(=O)N1C[C@H](F)C[C@@H]1C(=O)Nc1ccc2[nH]ncc2n1)c1ccc(OC(F)(F)F)cc1 [Example 58] | 1280 | 699
